Measurements from US8586755B2, “Substituted nicotinamides as KCNQ2/3 modulators” (Grünenthal GmbH, priority 2009, dated 2013).
pEC50: −log10 of the molar value.

Molecular target: T1, KCNQ2/3 channels (Homo sapiens, UniProt O43525+O43526)
T1 construct: expressed in transfected cells
Experiment: Fluorescence assay using a voltage sensitive dye (fluorimetry)
Type: cell-based
Conditions: CHO-K1 cells expressing KCNQ2/3 channels; for pEC50: agonistic activity; for Fluorimetry % efficacy (retigabine 50 μM = 100%) / Emax: retigabine 50 μM = 100%; for Emax: read-out: Fluorimetry % efficacy (retigabine 50 μM = 100%)
Summary of the method: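 Agonist EC50s come from the F2 vs F1 fluorescence comparison, F2 taken at the peak after KCl depolarisation (92 mM final) and F1 after 30 min compound exposure at room temperature. Assay uses KCNQ2/3-expressing CHO-K1 cells stained 45 min with a red voltage-sensitive dye in pH 7.4 ES buffer.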

Row | Compound | pEC50 | Fluorimetry % efficacy (retigabine 50 μM = 100%) | Emax
1 | O=C(NCc1cccs1)c1cccnc1CCCCc1cccc(C(F)(F)F)c1 [compound 21] | 6.44 | 126% | –
2 | O=C(NCC1CC2CCC1C2)c1cccnc1SCCCc1ccc(O)cc1 (stereo not drawn) [compound 58] | 5.41 | 174% | –
3 | O=C(NCCc1ccncc1)c1cccnc1SCCCc1ccc(F)cc1 [compound 89, 2-[3-(4-Fluorophenyl)-propylsulfanyl]-N-(2-pyridine-4-yl-ethyl)-pyridine-3-carboxylic acid amide] | 5.26 | – | 72%
4 | O=C(NCC1CC2CCC1C2)c1cccnc1SCCCc1cccc(O)c1 (stereo not drawn) [compound 73, N-(5-Bicyclo[2.2.1]heptanyl-methyl)-2-[3-(3-hydroxyphenyl)-propylsulfanyl]-pyridine-3-carboxylic acid amide] | 6.42 | – | 268%
5 | CC(C)CCNC(=O)c1cccnc1SCCC(F)(F)c1ccc(F)c(F)c1 [compound 209, 2-[[3-(3,4-Difluoro-phenyl)-3,3-difluoro-propyl]sulfanyl]-N-(3-methyl-butyl)-pyridine-3-carboxylic acid amide] | 8.05 | – | 228%
6 | CC(CCc1ccc(F)c(F)c1)Sc1ncccc1C(=O)NCc1ccc(F)cc1 (stereo not drawn) [compound 199, 2-[[3-(3,4-Difluoro-phenyl)-1-methyl-propyl]sulfanyl]-N-[(4-fluorophenyl)-methyl]-pyridine-3-carboxylic acid amide] | 7.70 | – | 124%
7 | O=C(NCc1cccc(C(F)(F)F)c1)c1cccnc1SCCCc1ccc(F)cc1 [compound 59, 2-[3-(4-Fluorophenyl)-propylsulfanyl]-N-[[3-(trifluoromethyl)phenyl]-methyl]-pyridine-3-carboxylic acid amide] | 6.68 | – | 83%
8 | Cc1cccc(CCCSc2ncccc2C(=O)NCc2cccs2)c1 [compound 103, 2-[3-(m-Tolyl)-propylsulfanyl]-N-(thiophen-2-yl-methyl)-pyridine-3-carboxylic acid amide] | 6.95 | – | 129%
9 | Cc1cccc(CNC(=O)c2cccnc2SCCC(F)(F)c2ccc(F)cc2)c1 [compound 183, 2-[[3,3-Difluoro-3-(4-fluorophenyl)-propyl]sulfanyl]-N-(m-tolyl-methyl)-pyridine-3-carboxylic acid amide] | 7.37 | – | 109%
10 | O=C(NCc1cccs1)c1cccnc1SCCCc1ccncc1 [compound 101, 2-(3-Pyridin-4-yl-propylsulfanyl)-N-(thiophen-2-yl-methyl)-pyridine-3-carboxylic acid amide] | – | – | 38%
11 | Cc1ccnc(SCCCc2ccc(F)cc2)c1C(=O)NCCC(C)(C)C [compound 148, N-(3,3-Dimethyl-butyl)-2-[3-(4-fluorophenyl)-propylsulfanyl]-4-methyl-pyridine-3-carboxylic acid amide] | 5.71 | – | 85%
12 | CC(C)(C)C(O)CNC(=O)c1cccnc1SCCCc1ccc(F)cc1 (stereo not drawn) [compound 126] | 6.20 | 177% | –
13 | O=C(O)c1cccc(CNC(=O)c2cccnc2SCCCc2ccc(F)cc2)c1 [compound 131] | – | 25% | –
14 | CC(CCc1ccc(F)cc1)Sc1ncccc1C(=O)NCC1C2CCC1CC2 (stereo not drawn) [compound 178, N-(7-Bicyclo[2.2.1]heptanyl-methyl)-2-[[3-(4-fluorophenyl)-1-methyl-propyl]sulfanyl]-pyridine-3-carboxylic acid amide] | 7.02 | – | 270%
15 | O=C(NCCCn1cncn1)c1cccnc1SCCCc1ccc(F)cc1 [compound 157, 2-[3-(4-Fluorophenyl)-propylsulfanyl]-N-[3-(1H-[1,2,4]triazol-1-yl)-propyl]-pyridine-3-carboxylic acid amide] | – | – | 88%
16 | O=C(NCc1cccc(-n2cccn2)c1)c1cccnc1SCCCc1ccc(F)cc1 [compound 140, 2-[3-(4-Fluorophenyl)-propylsulfanyl]-N-[[3-(1H-pyrazol-1-yl)-phenyl]-methyl]-pyridine-3-carboxylic acid amide] | 6.51 | – | 88%
17 | CCCCCNC(=O)c1cccnc1SCCC(F)(F)c1ccc(F)cc1 [compound 192, 2-[[3,3-Difluoro-3-(4-fluorophenyl)-propyl]sulfanyl]-N-pentyl-pyridine-3-carboxylic acid amide] | 7.49 | – | 195%
18 | O=C(NCc1ccncc1)c1cccnc1SCCCc1ccc(F)cc1 [compound 128, 2-[3-(4-Fluorophenyl)-propylsulfanyl]-N-(pyridin-4-yl-methyl)-pyridine-3-carboxylic acid amide] | 5.73 | – | 122%
19 | CC(C)(C)CCNC(=O)c1cccnc1SCC(=O)Cc1ccccc1 [compound 167] | 5.57 | 77% | –
20 | O=C(NCc1cccc(-c2ccccn2)c1)c1cccnc1SCCCc1ccc(F)cc1 [compound 151, 2-[3-(4-Fluorophenyl)-propylsulfanyl]-N-[(3-pyridin-2-yl-phenyl)-methyl]-pyridine-3-carboxylic acid amide] | 6.18 | – | 95%
21 | CC1CCCC(CNC(=O)c2cccnc2SCCCc2ccc(F)cc2)C1 (stereo not drawn) [compound 123, 2-[3-(4-Fluorophenyl)-propylsulfanyl]-N-[(3-methyl-cyclohexyl)-methyl]-pyridine-3-carboxylic acid amide] | 6.81 | – | 168%
22 | O=C(NCc1cccc(-c2cccnc2)c1)c1cccnc1SCCCc1ccc(F)cc1 [compound 152, 2-[3-(4-Fluorophenyl)-propylsulfanyl]-N-[(3-pyridin-3-yl-phenyl)-methyl]-pyridine-3-carboxylic acid amide] | 5.89 | – | 89%
23 | O=C(NCc1ccc(F)cc1)c1cccnc1SCCC(F)(F)c1cccc(C(F)(F)F)c1 [compound 165, 2-[[3,3-Difluoro-3-[3-(trifluoromethyl)phenyl]-propyl]sulfanyl]-N-[(4-fluorophenyl)-methyl]-pyridine-3-carboxylic acid amide] | 7.52 | – | 119%
24 | O=C(NCc1cccc(F)c1)c1cccnc1SCCC(F)(F)c1ccc(F)cc1 [compound 168, 2-[[3,3-Difluoro-3-(4-fluorophenyl)-propyl]sulfanyl]-N-[(3-fluorophenyl)-methyl]-pyridine-3-carboxylic acid amide] | 7.77 | – | 110%
25 | O=C(NCC1CC2CCC1C2)c1cccnc1SCCOc1ccc(F)cc1 (stereo not drawn) [compound 49, N-(5-Bicyclo[2.2.1]heptanyl-methyl)-2-[2-(4-fluoro-phenoxy)-ethylsulfanyl]-pyridine-3-carboxylic acid amide] | 6.64 | – | 174%
26 | CC(C)CCNC(=O)c1cccnc1SC(C)CCc1ccc(F)c(F)c1 (stereo not drawn) [compound 200, 2-[[3-(3,4-Difluoro-phenyl)-1-methyl-propyl]sulfanyl]-N-(3-methyl-butyl)-pyridine-3-carboxylic acid amide] | 7.40 | – | 230%
27 | O=C(NCC1CCCCCC1)c1cccnc1SCCC(F)(F)c1ccc(F)cc1 [compound 117, N-(Cycloheptyl-methyl)-2-[[3,3-difluoro-3-(4-fluorophenyl)-propyl]sulfanyl]-pyridine-3-carboxylic acid amide] | 7.46 | – | 160%
